From patent US5929082A, “Potassium ion channel blockers” (priority 1995, dated 1999)

How the values were obtained:
[1] = parameters: species or system Sprague-Dawley rats; conditions: rat, in vivo, po
Description: Representative compounds were evaluated for their effect on glucose tolerance following oral administration at doses ranging from 0.005 mg/kg to 100 mg/kg. Normal male Sprague-Dawley rats were dosed with a test compound daily for five days, and were fasted overnight prior to days 1 and 5. Control animals were given ether vehicle only, or Glibenclamide (glyburide; N-[4-(β-)(2-methoxy-5-chlorobenzamido)ethyl)benzosulphonyl)-N'-cyclohexylurea]; 2 mg/kg/day). Blood was collected on day zero and on days one and five at 0, 0.5, 1, 1.5 and 2 hours after drug administration. Blood glucose concentrations were then measured in duplicate using standard glucose oxidase analysis. The samples were assayed using a Hitachi U-200 Spectrophotometer at a wavelength of 505 nm. The weight gain of each rat was also measured over the five day period, and all results were compared to both the negative control group (dosing with vehicle only) and the positive control group (dosing with Glibenclamide). […] Doses of drugs administered were minimised so as to reduce differences in weight gain whilst retaining hypoglycaemic activity. […]
Each point represents the effect of each dose on the rats glucose tolerance or ability to gain weight, expressed as a percentage of the control (normal) response (where control=100% response). […]

[2] = system: MCF-7 human mammary carcinoma cells; conditions: concentration-dependent; Woodfork et al, 1995; read-out: IC50, inhibition of cell proliferation; cited from earlier work
[3] = Kinetic/metabolite studies: HPLC analysis of plasma after oral administration; assay type: in vivo, Sprague-Dawley rats
Description: Plasma samples were collected in order to test the correlation of plasma drug (or metabolite) concentration with hypoglycaemic activity, and to determine whether compounds of the invention were converted in vivo into active metabolites. The plasma levels of test compounds or metabolites also give an indication of rate of metabolism and kinetics of drug action.
Blood samples collected from rats treated as above and collected at the same intervals were analysed using an ICI LC1150 HPLC system and a LC1210 UV detector at a wavelength of 227 nm. The HPLC system used a Merck LiChroCART 125-4 LiChrosphere 100 RP-18 HPLC and LiChrosphere 100 RP-18 guard columns. The mobile phase consisted of 70% acetonitrile and a 30% aqueous sodium phosphate buffer at pH 7.45 and was prepared using standard HPLC grade reagents and distilled water. To improve the resolution of peaks and separation of the compounds a gradient method was established where changes in the concentration of the required buffers and solvents, and the time at which these changes occur is outlined in Table 7. The volumes are expressed as percentages of the total flow rate, with the flow rate remaining constant at […].
The data were acquired using the WinChrom Data Management system and were calibrated using stock solutions of the test compounds and Glibenclamide as an internal standard dissolved in 100% methanol
Plasma (250 μL) collected from the rats were extracted into methanol (700 μL) and 50 μL of Glibenclamide (25 μg/ml). The mixture was then agitated with a vortex mixer for 15 sec and centrifuged for 10 min. The clear supernatant was then carefully aspirated for HPLC analysis.
The results are outlined in Table 8 and show retention times (minutes) for the compounds and their metabolites as analysed by HPLC after oral administration in Sprague-Dawley rats. […] Glibenclamide is shown for comparison only, none of the metabolites observed with the test compounds correspond to metabolites of Glibenclamide.

[4] = system: MCF-7 human mammary carcinoma cells; conditions: Woodfork et al, 1995, cited from earlier work
[5] = Hypoglycaemic activity: change in blood glucose after oral gavage; assay type: in vivo, Sprague Dawley rats; conditions: 1.6 mg/kg oral gavage, normal fed male rats
Description: The biological activity of representative compounds of the invention was evaluated by means of several different tests. The activity of compounds of this invention as hypoglycaemic agents was measured and compared with the activity of the known compound of Example 1, using methods described in the literature. Thus normal, fed male Sprague Dawley rats weighing between 275 and 375 g were studied for changes in blood sugar levels and alterations to mean arterial blood pressure following administration of representative compounds of the invention suspended in a 5% solution of gum acacia by oral gavage at a dose of 1.6 mg/kg. The concentration of each compound was 4 mg in 10 ml, so that each rat received 1.1-1.5 ml to obtain the desired dose on a body weight basis. The blood sugar levels were recorded for each rat immediately prior to administration, and at 1, 2, and 3 hr following administration of the test compounds. Blood glucose levels were determined on blood samples taken from the tail, and analysed on an Ames blood glucometer, model 5626, and Ames, 2627 blood glucose strips (number 2). […] It is apparent that generally the heterocyclic sulphonylthioureas have greater activity than the sulphonylureas. Without wishing to be bound by any proposed mechanism for the observed effect, we believe that this may be associated with differences in lipid permeability.

rat heart = conditions: 1 μM, rat heart stimulated at 5 Hz; Kantor et al, 1987; cited from earlier work
[6] = system: MCF-7 mammary carcinoma cells; experiment: Thymidine uptake ([methyl-3H] thymidine incorporation into DNA); assay type: cell-based, human; conditions: 100 μM (printed 100 μH / 100 mM), compared to control group; Glibenclamide n=3, Compound 1-24 n=4
Description: Incorporation of [methyl-3H] thymidine into DNA was measured as described by Murphy and Lazarus (1983), using MCF-7 mammary carcinoma cells treated with compound 1-24 (100 μH) and a control group. The growth medium from cells cultured as described in Example 24 was aspirated from the wells, and 1 mL of fresh growth medium containing 1 μCi [3H]-thymidine (Amersham) was added to each well After 4 hours incubation, the medium was aspirated and the monolayers were washed three times with ice cold phosphate buffered saline (ICN). This was followed by three washes with 10% (v/v) ice cold trichloroacetic acid, each of 5 minutes duration. After another three washes with absolute ethanol at room temperature of 5 minutes duration, the monolayer was dried at room temperature for 10 minutes. The monolayer was […] after incubation for 12 hours with 0.5 N NaOH and 1% Triton-X 100 (Sigma). An aliquot of the cell lysate was added to 10 ml of Ultima Gold (Packard) and counted using a liquid scintillation counter (Packard model 19006A).

[7] = Cohen, 1986; cited from earlier work
[8] = system: MCF-7 human mammary carcinoma cells; experiment: Cell proliferation of MCF-7 tumour cells; assay type: cell-based; conditions: 100 μM compound
Description: The ability of a representative compound of the invention to inhibit proliferation of a tumour cell line was examined. MCF-7 human mammary carcinoma cells (Woodfork et al, 1995) were grown in 25 cm^2 Corning flasks in a 5% CO2 water jacket incubator. The medium used for the culture was RPMI 1640 (ICN) and was supplemented with 10% foetal Bovine serum (Cytosystems).
Cells and medium were examined daily to check for growth and infection. The medium was changed every second day. When cells reached 70-80% confluence, the cells were trypsinized with 0.05% trypsin (1:250, "DIFCO") and 0.02% EDTA.
The flasks were firstly washed with a phosphate buffer to remove residual RPMI 1640 medium, then covered with 2 mL of the trypsin solution and left in the incubator for 3-5 minutes. The cells were then transferred to a conical tube containing 2 mL of medium and 10% foetal bovine serum. The cells were centrifuged at 1000 rpm for 3 minutes and the supernatant removed 5 ml of the medium was then added to the pellet of cells and resuspended with a 2 ml pipette.
Approximately 10 μL of medium containing the cells was placed in a Neubauer haemocytometer, and the cells were counted in the 4×1 mm^2 grid per chamber. Cells were then diluted to contain 60×10^4 cells to be added to "Corning" 24 well plates (16 mm diameter). Wells respectively containing the control group and 100 μM compound 1-24 were established, and 3 wells/group/day were used to perform the cell growth study.
Each well contained 500 μL of medium or of compound 1-24. Plates were incubated for 24 hours before counting. The medium was aspirated with different pipette tips for the different study groups 100 μL of 0.02% EDTA solution was added to each well and incubated for 5 minutes. 200 μL of trypsin-EDTA was then added, and the cells incubated for a further 5 minutes, aspirated, and placed in 0.5 mL Eppendorf tubes before counting in a haemocytometer.

[9] = system: isolated guinea pig atria; experiment: Cardiac effects on isolated atrial preparations; parameters: species or system English short-haired guinea pigs; conditions: bath concentration 8×10^-6 M, 37° C., maximum responses
Description: Preliminary investigations were performed on isolated atrial preparations, and the results obtained using representative compounds of the invention compared to those obtained using the known compound of Example 1 and using Glibenclamide. English short-haired guinea pigs weighing between 200 and 300 g were killed by cervical dislocation. The whole heart was quickly removed by dissection and immersed in a Krebs-Henseleit solution, which had been aerated with carbogen (95% oxygen and 5% carbon dioxide). The atria were then separated by dissection in Krebs-Henseleit solution, whilst being aerated with carbogen.
The atria were then immersed in a 10 ml organ bath containing Krebs-Henseleit solution, maintained at 37° C. for the duration of the experiment by the circulation of water through the water jackets of organ baths by a temperature controlled water pump (Braun Thermomix, Germany), and aerated with carbogen. […] Changes in tension were measured by isometric force transducers and were recorded on a four channel Grass 7P Polygraph (Grass Instruments, Quincy, Mass., USA) which was calibrated daily such that the atria functioned with a resting tension of 1 g. The rate of beating of the atria was measured by the tachograph.
The activity of each test compound was assessed and compared to that of glibenclamide. […]

[10] = after oral administration, HPLC

COc1ccc(Cl)cc1C(=O)NCCc1ccc(S(=O)(=O)NC(=O)NC2CCCCC2)cc1 [Glibenclamide, reference compound]
weight gain over a five day period [1]: decreased their observed weight gain
IC50 [2]: 50 µM
Compound in plasma [3, 10]: no
accumulation at the G0/G1 phase in cell cycle distribution [4]: statistically significant accumulation at the G0/G1 phase
cell-cycle arrest ([4]; inhibition of KATP channels): reversible cell-cycle arrest
Change in Blood Glucose, 0 hours [5]: 0.0 mmol/L
Change in Blood Glucose, 1 Hour [5]: 0.6 mmol/L
Change in Blood Glucose, 2 Hours [5]: -2.1 mmol/L
Change in Blood Glucose, 3 Hours [5]: -2.4 mmol/L
effect on ischaemia-induced ventricular arrhythmias / K+ loss (rat heart): prevent or reduce ischaemia-induced ventricular arrhythmias
inhibition of thymidine uptake [6]: significant inhibition

CC(N/C(=N\C#N)Nc1ccncc1)C(C)(C)C (stereo not shown) [pinacidil]
vasodilator activity [7]: vasodilator activity

CCOc1cccc(NC(=S)NS(=O)(=O)c2ccc(C)cc2)n1 [Compound 1-24]
doubling rate of control group greater than that of cells exposed to compound [8]: approximately 25%
Rate of cell growth: mean cell number, Day 0 ([8]; day 0, n=1 in triplicate): 60,000
Rate of cell growth: mean cell number, Day 1 ([8]; day 1, control 58,000): 74,000
Rate of cell growth: mean cell number, Day 2 ([8]; day 2, control 110,000): 93,000
Rate of cell growth: mean cell number, Day 3 ([8]; day 3, control 188,000): 143,000
Rate of cell growth: mean cell number, Day 6 ([8]; day 6, control 355,000): 230,000
effect on MCF-7 tumour cell proliferation ([8]; in words): reduces MCF-7 tumour cell proliferation
Compound in plasma [3, 10]: no
metabolites observed in plasma ([3]; after oral administration, HPLC, in words): numerous metabolites in the plasma
time within which the compound is metabolised after administration ([3]; oral administration): ≤ 2 h
Change in Blood Glucose, 0 hours [5]: 0.0 mmol/L
Change in Blood Glucose, 1 Hour [5]: 0.5 mmol/L
Change in Blood Glucose, 2 Hours [5]: -2.2 mmol/L
Change in Blood Glucose, 3 Hours [5]: -1.8 mmol/L
inotropic activity [9]: particularly marked inotropic activity
inhibition of thymidine uptake [6]: significant inhibition
